Test results: patent US9981940B2, “Aryl sulfide derivatives and aryl sulfoxide derivatives as acaricides and insecticides” (BAYER CROPSCIENCE AKTIENGESELLSCHAFT, priority 2013, dated 2018)

Columns and labels:
[1] = log P by HPLC (OECD Guideline 117), method [a] acidic range; assay type: physicochemical; conditions: for logP[a]: HPLC, method [a] acidic range; for chromatographic logP: reversed-phase C18 HPLC column, acidic range
Experimental: (§1) The log P values were determined analogously to OECD Guideline 117 (EC Directive 92/69/EEC) by HPLC (high-performance liquid chromatography) using reversed-phase columns (C 18), by the following methods:
[a] The LC-MS determination in the acidic range is effected at pH 2.7 with 0.1% aqueous formic acid and acetonitrile (contains 0.1% formic acid) as eluents; linear gradient from 10% acetonitrile to 95% acetonitrile.

Tetranychus urticae = Tetranychus urticae spray test, OP-resistant (TETRUR); assay type: in vivo; conditions: application rate of 500 g/ha, after 6 days; for pest or weed control at 500 g/ha: Tetranychus urticae, 144 h, read-out: efficacy
Outline: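 Bean leaf discs infested with all stages of an OP-resistant Tetranychus urticae strain sprayed with compound in acetone/DMF with alkylaryl polyglycol ether emulsifier, diluted in water. Efficacy in % scored after 6 days; 100% means all mites killed.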

[2] = log P by HPLC (OECD Guideline 117), method [b] neutral range; assay type: physicochemical; conditions: HPLC; for logP[b]: method [b] neutral range; for chromatographic logP: reversed-phase C18 HPLC column, neutral range, pH 7.8
Experimental: as §1
[b] The LC-MS determination in the neutral range is effected at pH 7.8 with 0.001 molar aqueous ammonium hydrogencarbonate solution and acetonitrile as eluents; linear gradient from 10% acetonitrile to 95% acetonitrile.

[3] = pH 2.7, HPLC method [a], read-out: logP[a]
[4] = pH 2.7, HPLC, pH 2.7, read-out: log P[a]

## Cc1ccc(-n2nc(OC3CCCCC3)n(C)c2=O)cc1SCC(F)(F)F [Example 155]
[1]
  logP[a]: 5.22
Tetranychus urticae
  efficacy: 100%
[2]
  logP[b]: 5.17

## O=c1n(-c2cc([S+]([O-])CC(F)(F)F)c(Br)cc2F)nc(OCC(F)(F)F)n1C1CC1 (racemic) [Example 383]
[1]
  logP[a]: 3.27
Tetranychus urticae
  efficacy: 100%
[2]
  logP[b]: 3.26

## COc1nn(-c2cc([S+]([O-])CC(F)(F)F)c(C)cc2F)c(=O)n1C1CC1 (single isomer, unassigned) [Example 379]
[1]
  logP[a]: 2.14
Tetranychus urticae
  efficacy: 90%
[2]
  logP[b]: 2.09

## Cc1cc(F)c(-n2nc(CC(C)C)n(C3CC3)c2=O)cc1SCC(F)(F)F [Example 83]
[1]
  logP[a]: 3.99
Tetranychus urticae
  efficacy: 100%
[2]
  logP[b]: 3.93

## COC1=CC(=O)N(c2cc([S+]([O-])CC(F)(F)F)c(C)cc2C)C1 (racemic) [Example 313]
[1]
  logP[a]: 1.83
Tetranychus urticae
  efficacy: 90%
[2]
  logP[b]: 1.83

## Cc1cc(F)c(-n2nc(Oc3ccccc3)n(C)c2=O)cc1[S+]([O-])CC(F)(F)F (centres unmarked) [Example 159]
[1]
  logP[a]: 2.70
Tetranychus urticae
  efficacy: 100%
[2]
  logP[b]: 2.65

## CCCc1nn(-c2cc([S+]([O-])CC(F)(F)F)c(C)cc2F)c(=O)n1C1CC1 (racemic) [Example 80]
[1]
  logP[a]: 2.56
Tetranychus urticae
  efficacy: 100%
[2]
  logP[b]: 2.49

## Cc1cc(C)c(-n2nc(C(F)(F)F)n(C3CC3)c2=O)cc1SCC(F)(F)F [Example 48]
[1]
  logP[a]: 4.13
Tetranychus urticae
  efficacy: 100%
[2]
  logP[b]: 4.09

## COCCc1nn(-c2cc([S+]([O-])CC(F)(F)F)c(C)cc2F)c(=O)n1C1CC1 (racemic) [Example 76]
[1]
  logP[a]: 2.03
Tetranychus urticae
  efficacy: 100%
[2]
  logP[b]: 1.97

## Cc1cc(F)c(-n2nc(C(F)(F)F)n(C(C)(C)C)c2=O)cc1SCC(F)(F)F [Example 67]
[1]
  logP[a]: 4.78
Tetranychus urticae
  efficacy: 90%
[2]
  logP[b]: 4.66

## CCCOc1nn(-c2ccc(C)c([S+]([O-])CC(F)(F)F)c2)c(=O)n1C (centres unmarked) [Example 133]
[1]
  logP[a]: 2.93
Tetranychus urticae
  efficacy: 90%
[2]
  logP[b]: 2.86

## C=CCSc1nn(-c2cc(SCC(F)(F)F)c(C)cc2F)c(=O)n1C [Example 290]
[1]
  logP[a]: 3.62
Tetranychus urticae
  efficacy: 100%
[2]
  logP[b]: 3.56

## Cc1cc(F)c(-n2nc(C)n(-c3ccccc3)c2=O)cc1[S+]([O-])CC(F)(F)F (racemic) [Example 356]
[1]
  logP[a]: 2.38
Tetranychus urticae
  efficacy: 100%
[2]
  logP[b]: 2.35

## Cc1cc(F)c(-n2nc(C3CCCCC3)n(C3CC3)c2=S)cc1SCC(F)(F)F [Example 496]
[1]
  logP[a]: 5.00
Tetranychus urticae
  efficacy: 90%
[2]
  logP[b]: 4.88

## Cc1cc(F)c(-n2nc(OCC(C)(C)C)n(C3CC3)c2=O)cc1[S+]([O-])CC(F)(F)F (racemic) [Example 387]
[1]
  logP[a]: 3.60
Tetranychus urticae
  efficacy: 90%
[2]
  logP[b]: 3.52

## C=CCn1c(SC(C)C)nn(-c2cc([S+]([O-])CC(F)(F)F)c(C)cc2F)c1=O (racemic) [Example 285]
[1]
  logP[a]: 3.24
Tetranychus urticae
  efficacy: 100%
[2]
  logP[b]: 3.17

## Cc1cc(F)c(-n2nc(CC(C)C)n(C3CC3)c2=S)cc1SCC(F)(F)F [Example 493]
[1]
  logP[a]: 4.44
Tetranychus urticae
  efficacy: 100%
[2]
  logP[b]: 4.35

## Cc1cc(F)c(-n2nc(SCC(F)(F)F)n(C)c2=O)cc1SCC(F)(F)F [Example 281]
[1]
  logP[a]: 3.53
Tetranychus urticae
  efficacy: 100%
[2]
  logP[b]: 3.45

## C=CCn1c(SCCC)nn(-c2cc([S+]([O-])CC(F)(F)F)c(C)cc2F)c1=O (centres unmarked) [Example 430]
[1]
  logP[a]: 3.18
Tetranychus urticae
  efficacy: 90%
[2]
  logP[b]: 3.33

## Cc1cc(F)c(-n2nc(SCc3ccccc3)n(C)c2=O)cc1SCC(F)(F)F [Example 286]
[1]
  logP[a]: 4.12
Tetranychus urticae
  efficacy: 100%
[2]
  logP[b]: 4.03

## Cc1cc(F)c(N2CC(OC(C)C)=CC2=O)cc1[S+]([O-])CC(F)(F)F (centres unmarked) [Example 325]
[1]
  logP[a]: 2.46
Tetranychus urticae
  efficacy: 100%
[2]
  logP[b]: 2.43

## Cc1cc(F)c(-n2nc(C3CC3)n(N)c2=O)cc1SCC(F)(F)F [Example 196]
[1]
  logP[a]: 2.67
Tetranychus urticae
  efficacy: 100%
[2]
  logP[b]: 2.61

## Cc1cc(F)c(-n2ncn(Cc3ccccc3)c2=O)cc1SCC(F)(F)F [Example 368]
[1]
  logP[a]: 3.38
Tetranychus urticae
  efficacy: 100%
[2]
  logP[b]: 3.34

## CCOc1nn(-c2cc([S+]([O-])CC(F)(F)F)c(C)cc2F)c(=O)n1C1CC1 (centres unmarked) [Example 121]
[1]
  logP[a]: 2.47
Tetranychus urticae
  efficacy: 100%
[2]
  logP[b]: 2.43

## Cc1cc(F)c(-n2nc(OC(C)C)n(C)c2=O)cc1SCC(F)(F)F [Example 151]
[1]
  logP[a]: 3.61
Tetranychus urticae
  efficacy: 100%
[2]
  logP[b]: 3.53

## Cc1cc(F)c(-n2c(C)c(C)sc2=NCC(F)(F)F)cc1SCC(F)(F)F [Example 343, 2,2,2-Trifluoro-N-[3-{2-fluoro-4-methyl-5-[(2,2,2-trifluoroethyl)sulphanyl]phenyl}-4,5-dimethyl-1,3-thiazol-2(3H)-ylidene]ethanamine]
[1]; [3]
  chromatographic logP: 3.02
[1]; [4]
  chromatographic logP: 3.02
Tetranychus urticae
  pest or weed control at 500 g/ha: 100%
[2]
  chromatographic logP: 4.91

## CCOc1nn(-c2cc(SCC(F)(F)F)c(C)cc2F)c(=O)n1CC [Example 401]
[1]
  logP[a]: 3.62
Tetranychus urticae
  efficacy: 100%
[2]
  logP[b]: 3.53

## Cc1cc(F)c(N2C(=O)C=C(Br)C2=O)cc1SCC(F)(F)F [Example 337]
[1]
  logP[a]: 3.91
Tetranychus urticae
  efficacy: 90%
[2]
  logP[b]: 3.50

## Cc1cc(F)c(-n2nc(C(F)(F)F)n(C)c2=O)cc1SCC(F)(F)F [Example 9, 2-{2-Fluoro-4-methyl-5-[(2,2,2-trifluoroethyl)sulphanyl]phenyl}-4-methyl-5-(trifluoromethyl)-2,4-dihydro-3H-1,2,4-triazol-3-one]
[1]; [3]
  chromatographic logP: 3.58
[1]; [4]
  chromatographic logP: 3.58
Tetranychus urticae
  pest or weed control at 500 g/ha: 100%
[2]
  chromatographic logP: 3.53

## Cc1cc(F)c(-n2nc(OCC(C)(C)C)n(C)c2=O)cc1[S+]([O-])CC(F)(F)F (centres unmarked) [Example 165]
[1]
  logP[a]: 3.21
Tetranychus urticae
  efficacy: 100%
[2]
  logP[b]: 3.15

## CCC[S+]([O-])c1nn(-c2cc([S+]([O-])CC(F)(F)F)c(C)cc2F)c(=O)n1C (centres unmarked) [Example 246]
[1]
  logP[a]: 1.99
Tetranychus urticae
  efficacy: 100%
[2]
  logP[b]: 1.95

## CCC[S+]([O-])c1nn(-c2cc(SCC(F)(F)F)c(C)cc2F)c(=O)n1C1CC1 (centres unmarked) [Example 236]
[1]
  logP[a]: 3.05
Tetranychus urticae
  efficacy: 90%
[2]
  logP[b]: 2.98

## Cc1cc(F)c(-n2nc(SCC(F)(F)F)n(C)c2=O)cc1[S+]([O-])CC(F)(F)F (racemic) [Example 282]
[1]
  logP[a]: 2.57
Tetranychus urticae
  efficacy: 100%
[2]
  logP[b]: 2.52

## Cc1cc(F)c(-n2nc(N(C)C)n(C)c2=O)cc1[S+]([O-])CC(F)(F)F (racemic) [Example 191]
[1]
  logP[a]: 1.86
Tetranychus urticae
  efficacy: 90%
[2]
  logP[b]: 1.84

## Cc1ccc(-n2nnn(C)c2=O)cc1SCC(F)(F)F [Example 296]
[1]
  logP[a]: 3.07
Tetranychus urticae
  efficacy: 90%
[2]
  logP[b]: 3.04

## Cc1cc(Cl)c(-n2nc(OCC(F)(F)F)n(C3CC3)c2=O)cc1SCC(F)(F)F [Example 187]
[1]
  logP[a]: 3.98
Tetranychus urticae
  efficacy: 90%
[2]
  logP[b]: 3.93

## CCc1nn(-c2cc([S+]([O-])CC(F)(F)F)c(C)cc2F)c(=O)n1C1CC1 (racemic) [Example 78]
[1]
  logP[a]: 2.20
Tetranychus urticae
  efficacy: 100%
[2]
  logP[b]: 2.15

## COc1nn(-c2cc([S+]([O-])CC(F)(F)F)c(C)cc2F)c(=O)n1CC1CC1 (centres unmarked) [Example 412]
[1]
  logP[a]: 2.54
Tetranychus urticae
  efficacy: 100%
[2]
  logP[b]: 2.52
